Consider eleven molecules from ChEMBL document CHEMBL1201862, “PubChem BioAssay data set” (2004).

Among the test systems are A549; NCI/ADR-RES; SNB-19; T47D; COLO 205; HCT-116; NCI-H460; SNB-75; SK-OV-3; SF-295; IGROV-1; TK-10; EKVX; Hs-578T; OVCAR-8; MCF7; HCT-15; NCI-H522; PC-3; SN12C.
Holding throughout (test): NCI tumour cell line growth inhibition, 48 h

Several values for one entry are separate records, joined by “and”; a condition that tells them apart may be missing. Equal entries are not always repeated.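 Cells were grown in 96-well plates and exposed to each compound for 48 hours at five concentrations; endpoints were interpolated linearly between bracketing concentrations, or set to the highest concentration if not reached. GI50: concentration for 50% inhibition of growth.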 Activity calls are given as the source filed them. No stated cut-off is given here; in the data, active = GI50 up to about 1.1 µM and inactive = higher. Where a SMILES comes first, the peptide text is derived from it. [ ]: non-standard residue; d: D form. Phe(4-NO2) = N[CH](Cc1ccc([N+](=O)[O-])cc1)C(=O)O

Turning to `CN1c2ccccc2C(=O)NC12CCN(CC1COc3ccccc3O1)CC2` (stereo unspecified), the GI50 was 50.6 µM (inactive) in the assay with A549; 31.6 µM (inactive) in the assay on NCI/ADR-RES; 31.3 µM (inactive) in the assay with SNB-19; 21.2 µM (inactive) in the assay on T47D; 48.3 µM (inactive) in the assay with COLO 205; 37.3 µM (inactive) in the assay with HCT-116. The GI50 in the assay with NCI-H460 was 21.3 µM (inactive); in the assay on SNB-75 it was > 100 µM (inactive); in the assay on SK-OV-3, > 100 µM (inactive); with SF-295, 57.7 µM (inactive); in the assay with IGROV-1 it was 45.1 µM (inactive); in the assay on TK-10, 44.8 µM (inactive). Besides, the GI50 was 51.6 µM (inactive) in the assay on EKVX, 32.7 µM (inactive) with Hs-578T, 60.5 µM (inactive) in the assay on OVCAR-8 and 31.8 µM (inactive) in the assay with MCF7.
As for `N#Cc1c(-c2ccccc2)c(/C=N/c2ccc(Cl)cc2)c(=O)n2c1[nH]c1ccccc12`, the GI50 with A549 was 83.9 µM (inactive); with NCI/ADR-RES it was > 100 µM (inactive); in the assay on SNB-19, > 100 µM (inactive); with T47D, > 100 µM (inactive); in the assay on COLO 205, 83 µM (inactive); in the assay with HCT-15, greater than 100 µM. Besides, the GI50 in the assay with HCT-116 was 0.424 µM (active); in the assay on NCI-H460, > 100 µM (inactive); in the assay with SNB-75, > 100 µM (inactive); with SK-OV-3, > 100 µM (inactive); in the assay on NCI-H522 it was 61.2 µM (inactive); in the assay with SF-295 it was 50.5 µM (inactive). The GI50 in the assay with IGROV-1 was > 100 µM (inactive); with PC-3, > 100 µM (inactive); in the assay on TK-10, > 100 µM (inactive); in the assay on SN12C it was 97.7 µM (inactive); in the assay with OVCAR-8 it was > 100 µM (inactive); in the assay with MCF7, > 100 µM (inactive).
Regarding `O=C(CCCN1CCC(Nc2ccc(F)cc2)(c2nnnn2C2CCCCC2)CC1)c1ccc(F)cc1`, the GI50 with A549 is 13.1 µM (inactive); with NCI/ADR-RES it was 16.3 µM (inactive); with SNB-19, 15.6 µM (inactive); in the assay on COLO 205, 14.3 µM (inactive); with HCT-15 it was 15.2 µM; in the assay with HCT-116, 13.2 µM (inactive). Also, the GI50 is 11.6 µM (inactive) in the assay with NCI-H460; 11.2 µM (inactive) in the assay with SNB-75; 3.39 µM (inactive) with SK-OV-3; 16.3 µM (inactive) in the assay on NCI-H522; 18.3 µM (inactive) with SF-295; 3.69 µM (inactive) with IGROV-1. For the same molecule, the GI50 in the assay on PC-3 was 13.1 µM (inactive); in the assay on TK-10, 15.3 µM (inactive); in the assay on EKVX, 15.9 µM (inactive); in the assay with Hs-578T, 18.5 µM (inactive); in the assay on SN12C, 31.5 µM (inactive); in the assay on OVCAR-8, 23.6 µM (inactive). In addition, the GI50 with MCF7 was 17.8 µM (inactive).
On to `CCCCOC(=O)NC(Nc1ccc(S(=O)(=O)Nc2ccc(OC)nn2)cc1)(C(F)(F)F)C(F)(F)F`, for which the GI50 with A549 was > 100 µM (inactive); in the assay with NCI/ADR-RES, > 100 µM (inactive); in the assay on SNB-19 it was > 100 µM (inactive); in the assay with T47D, > 100 µM (inactive); with COLO 205, > 100 µM (inactive); in the assay with HCT-15, greater than 100 µM. The GI50 in the assay on HCT-116, with NCI-H460, with SK-OV-3, in the assay on SF-295, in the assay on IGROV-1 and with PC-3 was > 100 µM (inactive) throughout. The GI50 in the assay on TK-10, with EKVX, with SN12C, in the assay on OVCAR-8 and in the assay on MCF7 was > 100 µM (inactive) throughout.
`CN(N=O)C(=O)Nc1c[nH]c(=O)[nH]c1=O`: the GI50 in the assay on A549 was > 100 µM (inactive); in the assay on NCI/ADR-RES it was > 100 µM (inactive); in the assay on SNB-19 it was > 100 µM (inactive); in the assay on T47D it was > 100 µM (inactive); with COLO 205 it was > 100 µM (inactive); in the assay with HCT-15, greater than 100 µM. For the same molecule, the GI50 in the assay with HCT-116, in the assay on SNB-75, in the assay with SK-OV-3, in the assay with NCI-H522, in the assay on SF-295 and in the assay on IGROV-1 was > 100 µM (inactive) throughout. Also, the GI50 with PC-3, with TK-10, with EKVX, in the assay on SN12C, in the assay on OVCAR-8 and with MCF7 was > 100 µM (inactive) in each case.
Consider `CCN1CC2=C(NC(=S)NC2c2ccc(Cl)cc2)/C(=C/c2ccc(Cl)cc2)C1` (stereo unspecified), for which the GI50 with A549 is 29.7 µM (inactive); in the assay with NCI/ADR-RES, > 100 µM (inactive); with SNB-19, 68.9 µM (inactive); with COLO 205, > 100 µM (inactive); in the assay with HCT-15, 54.7 µM; with HCT-116 it was 62.5 µM (inactive). Moreover, the GI50 is 18.5 µM (inactive) in the assay on NCI-H460; 23.1 µM (inactive) with SNB-75; > 100 µM (inactive) in the assay with SK-OV-3; > 100 µM (inactive) in the assay on NCI-H522; 67.1 µM (inactive) with SF-295; 42 µM (inactive) with IGROV-1. In addition, the GI50 in the assay with PC-3 was 46.5 µM (inactive); with TK-10, > 100 µM (inactive); in the assay on EKVX, > 100 µM (inactive); in the assay on Hs-578T it was 57.5 µM (inactive); in the assay on OVCAR-8, 88.5 µM (inactive); in the assay with MCF7 it was > 100 µM (inactive).
As to `COC1C(OC(C)=O)CC(=O)OC(C)C/C=C/C=C\C(O)C(C)CC(CC=O)C1OC1OC(C)C(OC2CC(C)(O)C(OC(=O)CC(C)C)C(C)O2)C(N(C)C)C1O` (stereo unspecified), the GI50 in the assay on A549 was > 100 µM (inactive); with NCI/ADR-RES, > 100 µM (inactive); in the assay with SNB-19, > 100 µM (inactive) and 77.6 µM (inactive); with T47D it was > 100 µM (inactive); in the assay on COLO 205, > 100 µM (inactive) and 69.7 µM (inactive); in the assay with HCT-116 it was > 100 µM (inactive). Moreover, the GI50 in the assay with NCI-H460 was > 100 µM (inactive); with SNB-75, > 100 µM (inactive); in the assay on SK-OV-3 it was > 100 µM (inactive); in the assay on NCI-H522, > 100 µM (inactive); in the assay on SF-295 it was > 100 µM (inactive); in the assay with IGROV-1 it was 32.4 µM (inactive) and 25.6 µM (inactive). Moreover, the GI50 is 79.6 µM (inactive) in the assay on PC-3; > 100 µM (inactive) in the assay with TK-10; > 100 µM (inactive) in the assay on SN12C; > 100 µM (inactive) in the assay with OVCAR-8; > 100 µM (inactive) and 62.7 µM (inactive) in the assay with MCF7.
Regarding `CC(=O)C1C(=O)C(=O)N(c2ccccc2)C1=O` (stereo unspecified), the GI50 in the assay with A549 is > 100 µM (inactive); in the assay on NCI/ADR-RES, > 100 µM (inactive); with SNB-19, > 100 µM (inactive); with COLO 205 it was > 100 µM (inactive); with HCT-15, greater than 100 µM; with HCT-116, > 100 µM (inactive). The GI50 with NCI-H460, with SNB-75, in the assay with SK-OV-3, with NCI-H522, in the assay with SF-295 and in the assay with IGROV-1 was > 100 µM (inactive) each time. The GI50 in the assay with PC-3, in the assay on TK-10, with EKVX, with Hs-578T, in the assay on SN12C and in the assay with OVCAR-8 was > 100 µM (inactive) in each case. Moreover, the GI50 in the assay with MCF7 was > 100 µM (inactive).
Take `O=C(O)CNC(=O)c1c2ccccc2nc2ccccc12`: the GI50 in the assay with A549 was > 100 µM (inactive); in the assay on NCI/ADR-RES it was > 100 µM (inactive); in the assay with SNB-19, > 100 µM (inactive); in the assay on COLO 205, > 100 µM (inactive); in the assay on HCT-15, greater than 100 µM; in the assay on HCT-116, > 100 µM (inactive). Further, the GI50 in the assay on NCI-H460, in the assay with SNB-75, in the assay on SK-OV-3, in the assay with NCI-H522, with SF-295 and with IGROV-1 was > 100 µM (inactive) each time. Moreover, the GI50 with PC-3, in the assay on TK-10, in the assay with EKVX, with SN12C, with OVCAR-8 and in the assay with MCF7 was > 100 µM (inactive) in each case.
With `COC(=O)CCC(NC(=O)C(CCC(=O)OC)NC(=O)C(CCC(=O)OC)NC(=O)C(CCC(=O)OC)NC(=O)C(CCC(=O)OC)NC(=O)C(Cc1ccc([N+](=O)[O-])cc1)NC(=O)C(CCC(=O)OC)NC(=O)C(CCC(=O)OC)NC(=O)C(CCC(=O)OC)NC(=O)C(CCC(=O)OC)NC(=O)C(CCC(=O)OC)NC(C)=O)C(N)=O` (stereo unspecified) (Ac-E(OMe)E(OMe)E(OMe)E(OMe)E(OMe)[Phe(4-NO2)]E(OMe)E(OMe)E(OMe)E(OMe)E(OMe)-NH2; configuration not given here), the GI50 was > 100 µM (inactive) in the assay on A549; > 100 µM (inactive) in the assay on NCI/ADR-RES; > 100 µM (inactive) in the assay on SNB-19; > 100 µM (inactive) with COLO 205; greater than 10 µM in the assay with HCT-15; > 100 µM (inactive) in the assay on HCT-116. In addition, the GI50 was > 100 µM (inactive) in the assay on NCI-H460; > 100 µM (inactive) in the assay on SNB-75; 99.3 µM (inactive) in the assay on SK-OV-3; > 100 µM (inactive) with NCI-H522; 31.4 µM (inactive) in the assay on SF-295; > 100 µM (inactive) in the assay with IGROV-1. The GI50 is > 100 µM (inactive) in the assay on TK-10; > 100 µM (inactive) in the assay with EKVX; 20 µM (inactive) with Hs-578T; > 100 µM (inactive) with SN12C; > 100 µM (inactive) with OVCAR-8; > 100 µM (inactive) in the assay with MCF7.
Take `CC(=O)O[C@H]1C(=O)[C@@]2(C)[C@H]([C@H](OC(=O)c3ccccc3)[C@]3(O)C[C@H](OC(=O)[C@H](O)[C@@H](NC(=O)c4ccccc4)c4ccccc4)C(C)=C1C3(C)C)[C@]1(OC(C)=O)CO[C@@H]1C[C@@H]2O` [PACLITAXEL]: the GI50 in the assay with NCI/ADR-RES is 3.11 µM (inactive); in the assay with SNB-19 it was 0.0121 µM (active); in the assay with COLO 205, 0.00303 µM (active); in the assay with HCT-116, 0.00268 µM (active); in the assay on NCI-H460 it was 0.00296 µM (active); in the assay on SK-OV-3, 0.00881 µM (active). For the same molecule, the GI50 in the assay with NCI-H522 was 0.00464 µM (active); in the assay with IGROV-1 it was 0.00708 µM (active); in the assay on PC-3 it was 0.0182 µM (active); with TK-10, 0.113 µM (active); in the assay on Hs-578T, 0.00597 µM (active); in the assay with SN12C it was 0.00481 µM (active). In the assay with MCF7, the GI50 was 0.00292 µM (active).
